Laboratory results published in US9345791B2, “Ligands for targeting of S1P receptors for in vivo imaging and treatment of diseases” (Westfaelische Wilhelms-Universitaet Muenster, priority 2011, dated 2016).
pKd: −log10 of the molar value.

Columns and labels:
[1] = system: Lymphocytes (T- and B-cells); assay: Immunosuppressive activity in vivo: peripheral blood lymphopenia, flow cytometry; parameters: species or system mice; details: for B cells / CD4+ / CD8+ / WBC: intraperitoneally at 1.25 microgramm/kg body weight, blood drawn 24 hours later; for WBC: peripheral blood; for immunosuppressive action / effectiveness (in words): summary of table 1 in text
Experimental: The compounds of the invention were tested for immunosuppressive biological activity in vivo based on the known ability of S1P analogues to induce peripheral blood lymphopenia due to lymphocyte trapping in secondary lymph organs. The immunosuppressive activity of compound 21 (555558) and of compound 27 (555890) was compared with the corresponding activity a non-fluorinated analogue compound 7 (5551091), and non-ω (or close to ω)-fluorinated compounds (compounds 8 (555535) and 12 (555517)) as well as with FTY720 as a standard. The compounds were injected intraperitoneally at 1.25 microgramm/kg body weight in a total volume of 200 microliter. 24 hours later, blood was drawn from the retroorbital plexus in 17.8 mM EDTA as an anti-coagulant. Lymphocytes (T- and B-cells) were analyzed by flow cytometry as following: After lysis of red blood cells by BD Pharm Lyse (Becton Dickinson) in 50 microliter blood, cells were washed, resuspended in 100 microliter FACS buffer (1% BSA in PBS), and antibodies to CD4, CD8 and B220 (Becton Dickinson) were added (1 microliter antibody per sample each) for 30 minutes at room temperature. After 3 washes, cells were then analyzed by flow cytometry in a Gallios Beckman Coulter flow cytometer.

[2] = system: G-protein-coupled cell surface receptors (S1PR) designated S1P1-5; details: cited from earlier work

SMILES | melting point | B cells ([1]; cell count) | CD4+ ([1]; cell count) | CD8+ ([1]; cell count) | B cells ([1]; percentage) | CD4+ ([1]; percentage) | CD8+ ([1]; percentage) | WBC [1] | immunosuppressive action / effectiveness (in words) [1] | pKd [2]
CCCCCCCCc1ccc(C(O)CC(N)(CO)CO)cc1 (stereo not shown) [SSS 563, 3-Amino-3-(hydroxymethyl)-1-(4-octylphenyl)butane-1,4-diol] | 74 to 76 °C | – | – | – | – | – | – | – | – | –
CCCCCCCCCCCCCCCCC(N)(CO)CO [SSS1091, 2-Amino-2-hexadecylpropane-1,3-diol] | – | 1.27 0.26 10^6/mL | 0.09 0.02 10^6/mL | 0.08 0.01 10^6/mL | – | – | – | 4.14 0.60 10^6/mL | – | –
CCCCCCCCCCCCC/C=C/[C@@H](O)[C@@H](N)COP(=O)(O)O [Compound S1P, Sphingosine-1-phosphate] | – | – | – | – | – | – | – | – | – | 7.70 to 8.10
NC(CO)(CO)CCc1ccc(CCCCCCF)cc1 [SSS 944, 2-Amino-2-(4-(6-fluorohexyl)phenethyl)propane-1,3-diol] | 108 °C | – | – | – | – | – | – | – | – | –
CCCCCCCCCCCCCCC(N)(CO)CO [SSS943, 2-Amino-2-tetradecylpropane-1,3-diol] | – | 0.60 10^6/mL | 0.04 10^6/mL | 0.04 10^6/mL | 35.21% | 2.25% | 2.35% | 1.73 10^6/mL | – | –
CCC/C=C/CC(N)COP(=O)(O)O (stereo not shown) [Compound B1088] | – | 2.76 10^6/mL | 0.34 10^6/mL | 0.49 10^6/mL | 38.60% | 4.80% | 6.90% | 7.15 10^6/mL | – | –
CCCCCCCCc1ccc(CCC(N)(CO)CO)cc1 [FTY 720, 2-Amino-2-(4-octylphenethyl)propane-1,3-diol, reference compound] | – | 0.61 10^6/mL | 0.02 10^6/mL | 0.04 10^6/mL | 20.08% | 1.10% | 0.30% | 3.69 10^6/mL | – | –
CCC/C=C/CC(N)CO (stereo not shown) [SSS182] | – | 2.91 10^6/mL | 0.43 10^6/mL | 0.48 10^6/mL | 42.20% | 6.30% | 7.00% | 6.90 10^6/mL | – | –
CCC/C=C(\F)CC(N)COP(=O)(O)O (stereo not shown) [Compound B1087] | – | 2.49 10^6/mL | 0.42 10^6/mL | 0.59 10^6/mL | 35.20% | 5.90% | 8.40% | 7.06 10^6/mL | – | –

The next lines start with results.

melting point | SMILES | B cells ([1]; cell count) | CD4+ ([1]; cell count) | CD8+ ([1]; cell count) | B cells ([1]; percentage) | CD4+ ([1]; percentage) | CD8+ ([1]; percentage) | WBC [1] | immunosuppressive action / effectiveness (in words) [1] | pKd [2]
52 °C | CCCCCCCCCCCCCCCCC(N)(CO)CF (stereo not shown) [SSS535, 2-Amino-2-(fluoromethyl)octadecan-1-ol] | 3.54 10^6/mL | 0.42 10^6/mL | 0.39 10^6/mL | 50.20% | 6.00% | 5.50% | 7.05 10^6/mL | diminishes effectiveness | –
72 to 75 °C | CN(C)c1cccc2c(S(=O)(=O)NCCCCCCCCCCCCCCCCC(N)(CO)CO)cccc12 [SSS846, N-(17-Amino-18-hydroxy-17-(hydroxymethyl)octadecyl)-5-(dimethylamino)naphthalene-1-sulfonamide] | 5.32 10^6/mL | 0.98 10^6/mL | 0.52 10^6/mL | 57.30% | 10.60% | 5.60% | 9.28 10^6/mL | – | –
68 to 70 °C | CCCCCCCCCCCCC/C=C(\F)CC(N)(CO)CO [SSS862, (Z)-2-Amino-2-(2-fluorohexadec-2-en-1-yl)propane-1,3-diol] | 3.23 10^6/mL | 0.27 10^6/mL | 0.41 10^6/mL | 60.90% | 5.00% | 7.80% | 5.31 10^6/mL | – | –
57 °C | CCCCCCCCCCCCC/C=C/CC(N)(CO)CO [SSS822, (E)-2-Amino-2-(hexadec-2-en-1-yl)propane-1,3-diol] | 1.17 0.33 10^6/mL | 0.10 0.01 10^6/mL | 0.12 0.05 10^6/mL | – | – | – | 5.02 1.04 10^6/mL | – | –
96 to 98 °C | CCCCCCCCCCCCCCC(F)CC(N)(CO)CO (stereo not shown) [SSS517, 2-Amino-2-(2-fluorohexadecyl)propan-1,3-diol] | 4.81 10^6/mL | 0.54 10^6/mL | 0.60 10^6/mL | 42.40% | 4.80% | 5.30% | 11.35 10^6/mL | very moderate immunosuppressive action | –
108 to 110 °C | CCCCCCCCCCCCCCC(F)CC(N)(CO)CO.Cl (stereo not shown) [SSS564, 2-Amino-2-(2-fluorohexadecyl)propan-1,3-diol hydrochloride] | 5.52 10^6/mL | 0.65 10^6/mL | 0.98 10^6/mL | 42.20% | 5.00% | 7.50% | 13.07 10^6/mL | – | –
85 °C | NC(CO)(CO)CCCCCCCCCCCCCCCF [SSS890, 2-Amino-2-(15-fluoropentadecyl)propane-1,3-diol] | – | – | – | – | – | – | – | – | –
74 °C | CCCCCCCCCCCCC/C=C(/F)CC(N)(CO)CO [SSS864, (E)-2-Amino-2-(2-fluorohexadec-2-en-1-yl)propane-1,3-diol] | 3.41 10^6/mL | 0.28 10^6/mL | 0.37 10^6/mL | 64.70% | 5.40% | 7.00% | 5.27 10^6/mL | – | –
77 °C | NC(CO)(CO)CCCCCCCCCCCCCCCCF [SSS558, 2-Amino-2-(16-fluorohexadecyl)propan-1,3-diol] | 1.52 0.04 10^6/mL | 0.15 0.08 10^6/mL | 0.13 0.04 10^6/mL | – | – | – | 3.74 0.70 10^6/mL | – | –
